Source: patent publication US20190153024A1, “NOVEL SALTS AND POLYMORPHS OF SCY-078” (priority 2015, published 2019)
Values after ≈ are worked out from the molar mass of the structure shown.

Key:
[1] = Dynamic Vapor Sorption (DVS) water uptake; type: physicochemical
Experimental: Dynamic Vapor Sorption (DVS)—The term “DVS” means the procedure described in below. The relative humidity at 25° C. was calibrated against deliquescence point of LiCl, Mg(NO3)2 and KCl.
The DVS of SCY-078 salts were tested according to the above method, using a 10-20 mg sample size. The DVS was measured using a Surface Measurement Systems (SMS) DVS Intrinsic.

[2] = Approximate solubility in solvents at room temperature; type: physicochemical; conditions: 25 °C, thermodynamic from solid
Experimental: Approximate solubility of SCY-078 salts—The term “approximate solubility” with respect to SCY-078 salts means the procedure described in this paragraph. To conduct each experiment, a sample of a SCY-078 salt (˜2 mg) was added into a 3-mL glass vial. Then a solvent was added step-wise (100 μL per step) into the vials until the solids were dissolved or a total volume of 2 mL was reached.
First, MeOH desolvate (˜2 mg) was added to a 3-mL glass vial. Then the corresponding solvent was added step wise (100 μL) until the solution was visually clear or a total volume of 2 mL was reached.

CC(C)[C@@H](C)[C@@]1(C)CC[C@]2(C)[C@H]3CC[C@@H]4[C@@]5(COC[C@]4(C)[C@@H](OC[C@](C)(N)C(C)(C)C)[C@H](n4ncnc4-c4ccncc4)C5)C3=CC[C@@]2(C)[C@@H]1C(=O)O [SCY-078 amorphous freebase]
water uptake (DVS) ([1]; 25° C., 80% RH): ~4.8%
solid form by XRPD after DVS ([1]; after DVS experiment): no form change

CC(C)[C@@H](C)[C@@]1(C)CC[C@]2(C)[C@H]3CC[C@@H]4[C@@]5(COC[C@]4(C)[C@@H](OC[C@](C)(N)C(C)(C)C)[C@H](n4ncnc4-c4ccncc4)C5)C3=CC[C@@]2(C)[C@@H]1C(=O)O [SCY-078, (1S,4aR,6aS,7R,8R,10aR,10bR,12aR,14R,15R)-15-[[(2R)-2-amino-2,3,3-trimethylbutyl]oxy]-8-[(1R)-1,2-dimethylpropyl]-14-[5-(4-pyridinyl)-1H-1,2,4-triazol-1-yl]-1,6,6a,7,8,9,10,10a,10b,11,12,12a-dodecahydro-1,6a,8,10a-tetramethyl-4H-4a-propano-2H -phenanthro[1,2-c]pyran-7-carboxylic acid]
solubility ([2]; organic solvent or mixture, 1,4-Dioxane, RT): > 37 mg/mL
solubility ([2]; organic solvent or mixture, 2-MeTHF, RT): > 25 mg/mL
solubility ([2]; organic solvent or mixture, Acetic Acid, RT): > 25 mg/mL
solubility ([2]; organic solvent or mixture, Acetone, RT): 8.3 to 12.5 mg/mL (≈ 11.4 to 17.1 mM)
solubility ([2]; organic solvent or mixture, CHCl3, RT): > 33 mg/mL
solubility ([2]; organic solvent or mixture, DMA, RT): > 40 mg/mL
solubility ([2]; organic solvent or mixture, DMSO, RT): > 32 mg/mL
solubility ([2]; organic solvent or mixture, EtOAc, RT): > 23 mg/mL
solubility ([2]; organic solvent or mixture, EtOH, RT): 2.6 to 3 mg/mL (≈ 3.56 to 4.11 mM)
solubility ([2]; organic solvent or mixture, Heptane, RT): < 2.2 mg/mL
solubility ([2]; organic solvent or mixture, IPA, RT): 7 to 11 mg/mL (≈ 9.59 to 15.1 mM)
solubility ([2]; organic solvent or mixture, MIBK, RT): > 29 mg/mL
solubility ([2]; organic solvent or mixture, MTBE, RT): > 23 mg/mL
solubility ([2]; organic solvent or mixture, MeOH, RT): 5.4 to 6.3 mg/mL (≈ 7.4 to 8.63 mM)
solubility ([2]; organic solvent or mixture, NMP, RT): > 45 mg/mL
solubility ([2]; organic solvent or mixture, THF, RT): > 23 mg/mL
solubility ([2]; organic solvent or mixture, Toluene, RT): 6.8 to 8.5 mg/mL (≈ 9.31 to 11.6 mM)
solubility ([2]; organic solvent or mixture, iPrOAc, RT): 10.5 to 21 mg/mL (≈ 14.4 to 28.8 mM)
solubility ([2]; acetonitrile (ACN), organic solvent or mixture, ACN, RT): 2.6 to 2.9 mg/mL (≈ 3.56 to 3.97 mM)
solubility ([2]; water (H2O), water, H2O, RT): < 1.9 mg/mL
